Assay results reported in US20260138958A1, “SUBSTITUTED N-PHENYLURACILS AND SALTS THEREOF, AND USE THEREOF AS HERBICIDAL ACTIVE SUBSTANCES” (Bayer Aktiengesellschaft, priority 2022, published 2026).

Tests used:
Format in all cases: in vivo
[1] = system: Amaranthus retroflexus (AMARE); test: Post-emergence herbicidal action, greenhouse pot test
Procedure, shortened: (§1)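 Foliar spray on one-leaf-stage pot plants in sandy loam (WP or EC, 0.5% additive, 600 l/ha water), then about 3 weeks under optimum greenhouse conditions before visual scoring on a 0–100% scale against untreated controls, where 100% means plant death.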

[2] = system: Echinochloa crus-galli (ECHCG); test: as above
Procedure, shortened: as §1

[3] = system: Tripleurospermum inodorum (MATIN); test: as above
Procedure, shortened: as §1

Veronica persica (VERPE) = test: as above
Procedure, shortened: as §1

Viola tricolor (VIOTR) = test: as above
Procedure, shortened: as §1

[4] = system: Alopecurus myosuroides (ALOMY); test: as above
Procedure, shortened: as §1

[5] = system: Abutilon theophrasti (ABUTH); test: as above
Procedure, shortened: as §1

[6] = system: Pharbitis purpurea (PHBPU); test: as above
Procedure, shortened: as §1

Setaria viridis (SETVI) = test: as above
Procedure, shortened: as §1

[7] = system: Polygonum convolvulus (POLCO); test: as above
Procedure, shortened: as §1

Lolium rigidum (LOLRI) = test: as above
Procedure, shortened: as §1

Zea mays (ZEAMX) = test: Post-emergence crop plant compatibility, greenhouse pot test
Procedure, shortened: (§2)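 Crops grown in sandy loam in the greenhouse were sprayed post-emergence at the one-leaf stage, 2–3 weeks after sowing, with WP or EC formulations plus 0.5% additive at 600 l/ha water. Damage was rated visually after about 3 weeks against untreated controls (0% = like control, 100% = dead).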

[8] = system: Triticum aestivum (TRZAS); test: as above
Procedure, shortened: as §2

Oryza sativa (ORYSA) = test: as above
Procedure, shortened: as §2

[9] = crop plant, post-emergence, 1.25 g/ha

Q: For Cn1c(C(F)(F)F)cc(=O)n(-c2cc(Oc3ccccc3OCC(=O)OCC3CC3)c(Cl)cc2F)c1=O [I.7-1], which “Post-emergence effect at 1.25 g/ha against AMARE in %” value ([1]; 1.25 g/ha) is on record?
A: The value was 100%.

Q: What about the “Post-emergence effect at 5 g/ha against AMARE in %” value ([1]; 5 g/ha) of the same compound?
A: The value was 100%.

Q: And the “Post-emergence effect at 20 g/ha against AMARE in %” value ([1]; 20 g/ha)?
A: The value was 100%.

Q: What about the “Post-emergence effect at 1.25 g/ha against ECHCG in %” value [2] of the same compound?
A: Its value is 100%.

Q: What about the “Post-emergence effect at 5 g/ha against ECHCG in %” value [2] of the same compound?
A: Its value is 100%.

Q: What about the “Post-emergence effect at 20 g/ha against ECHCG in %” value ([2]; 20 g/ha) of the same compound?
A: Its value is 100%.

Q: And the “Post-emergence effect at 1.25 g/ha against MATIN in %” value ([3]; 1.25 g/ha)?
A: The value was 80%.

Q: What about the “Post-emergence effect at 5 g/ha against MATIN in %” value [3] of the same compound?
A: Its value is 100%.

Q: And the “Post-emergence effect at 20 g/ha against MATIN in %” value ([3]; 20 g/ha)?
A: Its value is 100%.

Q: And the “Post-emergence effect at 1.25 g/ha against VERPE in %” value (Veronica persica (VERPE); 1.25 g/ha)?
A: The value was 100%.

Q: What about the “Post-emergence effect at 5 g/ha against VERPE in %” value (Veronica persica (VERPE); 5 g/ha) of the same compound?
A: The value was 100%.

Q: And the “Post-emergence effect at 20 g/ha against VERPE in %” value (Veronica persica (VERPE); 20 g/ha)?
A: The value was 100%.

Q: What about the “Post-emergence effect at 1.25 g/ha against VIOTR in %” value (Viola tricolor (VIOTR)) of the same compound?
A: Its value is 100%.

Q: And the “Post-emergence effect at 5 g/ha against VIOTR in %” value (Viola tricolor (VIOTR))?
A: Its value is 100%.

Q: What about the “Post-emergence effect at 20 g/ha against VIOTR in %” value (Viola tricolor (VIOTR); 20 g/ha) of the same compound?
A: The value was 100%.

Q: And the “Post-emergence effect at 5 g/ha against ALOMY in %” value [4]?
A: The value was 90%.

Q: And the “Post-emergence effect at 20 g/ha against ALOMY in %” value ([4]; 20 g/ha)?
A: Its value is 100%.

Q: And the “Post-emergence effect at 1.25 g/ha against ABUTH in %” value [5]?
A: The value was 90%.

Q: And the “Post-emergence effect at 5 g/ha against ABUTH in %” value ([5]; 5 g/ha)?
A: The value was 100%.

Q: And the “Post-emergence effect at 20 g/ha against ABUTH in %” value ([5]; 20 g/ha)?
A: Its value is 100%.

Q: What about the “Post-emergence effect at 1.25 g/ha against PHBPU in %” value ([6]; 1.25 g/ha) of the same compound?
A: Its value is 80%.

Q: And the “Post-emergence effect at 5 g/ha against PHBPU in %” value ([6]; 5 g/ha)?
A: Its value is 100%.

Q: What about the “Post-emergence effect at 20 g/ha against PHBPU in %” value ([6]; 20 g/ha) of the same compound?
A: Its value is 100%.

Q: And the “Post-emergence effect at 1.25 g/ha against SETVI in %” value (Setaria viridis (SETVI))?
A: Its value is 100%.

Q: What about the “Post-emergence effect at 5 g/ha against SETVI in %” value (Setaria viridis (SETVI); 5 g/ha) of the same compound?
A: The value was 100%.

Q: What about the “Post-emergence effect at 20 g/ha against SETVI in %” value (Setaria viridis (SETVI); 20 g/ha) of the same compound?
A: Its value is 100%.

Q: What about the “Post-emergence effect at 1.25 g/ha against POLCO in %” value ([7]; 1.25 g/ha) of the same compound?
A: Its value is 80%.

Q: And the “Post-emergence effect at 5 g/ha against POLCO in %” value ([7]; 5 g/ha)?
A: Its value is 100%.

Q: And the “Post-emergence effect at 20 g/ha against POLCO in %” value ([7]; 20 g/ha)?
A: Its value is 100%.

Q: And the “Post-emergence effect at 20 g/ha against LOLRI in %” value (Lolium rigidum (LOLRI))?
A: Its value is 80%.

Q: What about the “Post-emergence effect at 1.25 g/ha against ZEAMX in %” value (Zea mays (ZEAMX); [9]) of the same compound?
A: Its value is 20%.

Q: What about the “Post-emergence effect at 1.25 g/ha against TRZAS in %” value [8, 9] of the same compound?
A: Its value is 0%.

Q: What about the “Post-emergence effect at 1.25 g/ha against ORYSA in %” value (Oryza sativa (ORYSA); [9]) of the same compound?
A: Its value is 0%.

Q: And the “Post-emergence effect at 5 g/ha against ORYSA in %” value (Oryza sativa (ORYSA); crop plant, post-emergence, 5 g/ha)?
A: Its value is 20%.

Q: Cn1c(C(F)(F)F)cc(=O)n(-c2cc(Oc3ccccc3OCC(=O)OCC3CC3)c(C#N)cc2F)c1=O [I.9-1, Cyclopropylmethyl (2-{2-cyano-4-fluoro-5-[3-methyl-2,6-dioxo-4-(trifluoromethyl)-3,6-dihydropyrimidin-1(2H)-yl]phenoxy}phenoxy)acetate] was tested. Which pest or weed control at 1.25 g/ha ([1]; Amaranthus retroflexus, 504 h, 1.25 g/ha, read-out: Post-emergence effect at 1.25 g/ha against AMARE in %) did it give?
A: Its pest or weed control at 1.25 g/ha is 100%.

Q: And the pest or weed control at 5 g/ha ([1]; Amaranthus retroflexus, 504 h, 5 g/ha, read-out: Post-emergence effect at 5 g/ha against AMARE in %)?
A: The pest or weed control at 5 g/ha was 100%.

Q: What about the pest or weed control at 20 g/ha ([1]; Amaranthus retroflexus, 504 h, 20 g/ha, read-out: Post-emergence effect at 20 g/ha against AMARE in %) of the same compound?
A: The pest or weed control at 20 g/ha was 100%.

Q: What about the “Post-emergence effect at 1.25 g/ha against ECHCG in %” value [2] of the same compound?
A: Its value is 80%.

Q: And the “Post-emergence effect at 5 g/ha against ECHCG in %” value [2]?
A: The value was 100%.

Q: And the pest or weed control at 20 g/ha ([2]; Echinochloa crus-galli, 504 h, 20 g/ha, read-out: Post-emergence effect at 20 g/ha against ECHCG in %)?
A: The pest or weed control at 20 g/ha was 100%.

Q: And the “Post-emergence effect at 5 g/ha against MATIN in %” value [3]?
A: Its value is 80%.

Q: What about the pest or weed control at 20 g/ha ([3]; Tripleurospermum inodorum, 504 h, 20 g/ha, read-out: Post-emergence effect at 20 g/ha against MATIN in %) of the same compound?
A: The pest or weed control at 20 g/ha was 80%.

Q: What about the pest or weed control at 5 g/ha (Veronica persica (VERPE); Veronica persica, 504 h, 5 g/ha, read-out: Post-emergence effect at 5 g/ha against VERPE in %) of the same compound?
A: The pest or weed control at 5 g/ha was 100%.

Q: What about the pest or weed control at 20 g/ha (Veronica persica (VERPE); Veronica persica, 504 h, 20 g/ha, read-out: Post-emergence effect at 20 g/ha against VERPE in %) of the same compound?
A: Its pest or weed control at 20 g/ha is 100%.

Q: What about the “Post-emergence effect at 1.25 g/ha against VIOTR in %” value (Viola tricolor (VIOTR)) of the same compound?
A: Its value is 100%.

Q: What about the “Post-emergence effect at 5 g/ha against VIOTR in %” value (Viola tricolor (VIOTR)) of the same compound?
A: Its value is 100%.

Q: What about the pest or weed control at 20 g/ha (Viola tricolor (VIOTR); Viola tricolor, 504 h, 20 g/ha, read-out: Post-emergence effect at 20 g/ha against VIOTR in %) of the same compound?
A: The pest or weed control at 20 g/ha was 100%.

Q: What about the “Post-emergence effect at 5 g/ha against ALOMY in %” value [4] of the same compound?
A: Its value is 100%.

Q: And the pest or weed control at 20 g/ha ([4]; Alopecurus myosuroides, 504 h, 20 g/ha, read-out: Post-emergence effect at 20 g/ha against ALOMY in %)?
A: The pest or weed control at 20 g/ha was 100%.

Q: What about the “Post-emergence effect at 1.25 g/ha against ABUTH in %” value [5] of the same compound?
A: The value was 100%.

Q: What about the pest or weed control at 5 g/ha ([5]; Abutilon theophrasti, 504 h, 5 g/ha, read-out: Post-emergence effect at 5 g/ha against ABUTH in %) of the same compound?
A: Its pest or weed control at 5 g/ha is 100%.

Q: And the pest or weed control at 20 g/ha ([5]; Abutilon theophrasti, 504 h, 20 g/ha, read-out: Post-emergence effect at 20 g/ha against ABUTH in %)?
A: Its pest or weed control at 20 g/ha is 100%.

Q: And the pest or weed control at 5 g/ha ([6]; Ipomoea purpurea, 504 h, 5 g/ha, read-out: Post-emergence effect at 5 g/ha against PHBPU in %)?
A: The pest or weed control at 5 g/ha was 100%.

Q: And the pest or weed control at 20 g/ha ([6]; Ipomoea purpurea, 504 h, 20 g/ha, read-out: Post-emergence effect at 20 g/ha against PHBPU in %)?
A: The pest or weed control at 20 g/ha was 100%.

Q: What about the “Post-emergence effect at 1.25 g/ha against SETVI in %” value (Setaria viridis (SETVI)) of the same compound?
A: Its value is 80%.

Q: And the pest or weed control at 5 g/ha (Setaria viridis (SETVI); Setaria viridis, 504 h, 5 g/ha, read-out: Post-emergence effect at 5 g/ha against SETVI in %)?
A: Its pest or weed control at 5 g/ha is 100%.

Q: And the pest or weed control at 20 g/ha (Setaria viridis (SETVI); Setaria viridis, 504 h, 20 g/ha, read-out: Post-emergence effect at 20 g/ha against SETVI in %)?
A: Its pest or weed control at 20 g/ha is 100%.

Q: What about the pest or weed control at 5 g/ha ([7]; Fallopia convolvulus, 504 h, 5 g/ha, read-out: Post-emergence effect at 5 g/ha against POLCO in %) of the same compound?
A: Its pest or weed control at 5 g/ha is 80%.

Q: What about the pest or weed control at 20 g/ha ([7]; Fallopia convolvulus, 504 h, 20 g/ha, read-out: Post-emergence effect at 20 g/ha against POLCO in %) of the same compound?
A: The pest or weed control at 20 g/ha was 100%.

Q: What about the “Post-emergence effect at 1.25 g/ha against ZEAMX in %” value (Zea mays (ZEAMX); Zea mays, in vivo) of the same compound?
A: The value was 10%.

Q: And the “Post-emergence effect at 5 g/ha against ZEAMX in %” value (Zea mays (ZEAMX); Zea mays, in vivo)?
A: Its value is 20%.

Q: What about the “Post-emergence effect at 1.25 g/ha against TRZAS in %” value ([8]; Triticum aestivum, in vivo) of the same compound?
A: Its value is 0%.

Q: And the “Post-emergence effect at 20 g/ha against TRZAS in %” value ([8]; Triticum aestivum, in vivo)?
A: Its value is 20%.

Q: What about the “Post-emergence effect at 1.25 g/ha against ORYSA in %” value (Oryza sativa (ORYSA); Oryza sativa, in vivo) of the same compound?
A: Its value is 0%.

Q: And the “Post-emergence effect at 5 g/ha against ORYSA in %” value (Oryza sativa (ORYSA); Oryza sativa, in vivo)?
A: Its value is 0%.

Q: And the “Post-emergence effect at 20 g/ha against ORYSA in %” value (Oryza sativa (ORYSA); Oryza sativa, in vivo)?
A: Its value is 0%.
